Assays:
Protease [1] = biological target: Protease (Human immunodeficiency virus 1, UniProt Q9YQ12, I84V); test: Inhibition of HIV1 NL4-3 protease I84V mutant expressed in Escherichia coli TAP-106 cells using EDANS/DABCYL-labelled 10-amino acid containing protease cleavage site as substrate preincubated for 1 hr followed by substrate addition and measured for 60 mins by FRET assay
[2] = test system: Human immunodeficiency virus 1; test: Antiviral activity against wild-type HIV1 NL4-3 infected in human TZM-bl cells infected with supernatants from virus-infected human 293T cells treated with compound for 18 hrs assessed as reduction in viral replication by luciferase assay; type: functional, organism-based; details: Human immunodeficiency virus 1, NL4-3, 18 h
[3] = biological target: Human immunodeficiency virus type 1 protease (Human immunodeficiency virus 1, UniProt Q72874); test: Inhibition of HIV1 NL4-3 protease expressed in Escherichia coli TAP-106 cells using EDANS/DABCYL-labelled 10-amino acid containing protease cleavage site as substrate preincubated for 1 hr followed by substrate addition and measured for 60 mins by FRET assay
Protease [4] = biological target: Protease (Human immunodeficiency virus 1, UniProt Q9YQ12, A71V/I50V); test: Inhibition of HIV1 NL4-3 protease I50V/A71V mutant expressed in Escherichia coli TAP-106 cells using EDANS/DABCYL-labelled 10-amino acid containing protease cleavage site as substrate preincubated for 1 hr followed by substrate addition and measured for 60 mins by FRET assay
Protease (Human immunodeficiency virus 1, UniProt Q9YQ12, A71V/I50V), sequence (Q9YQ12 entry or part of it A71V/I50V): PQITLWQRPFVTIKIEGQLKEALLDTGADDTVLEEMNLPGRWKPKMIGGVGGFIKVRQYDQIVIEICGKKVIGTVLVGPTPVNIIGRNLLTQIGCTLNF

Protease (Human immunodeficiency virus 1, UniProt Q9YQ12, I84V), sequence (Q9YQ12 entry or part of it I84V): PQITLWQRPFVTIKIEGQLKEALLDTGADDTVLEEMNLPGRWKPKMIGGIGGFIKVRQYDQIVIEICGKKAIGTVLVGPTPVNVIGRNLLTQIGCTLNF

Row | Structure (SMILES) | Ki (Protease [1]) | EC50 [2] | Ki [3] | Ki (Protease [4])
1 | COC(=O)N[C@H](C(=O)N[C@@H](Cc1ccccc1)[C@@H](O)C[C@H](Cc1ccccc1)NC(=O)O[C@H]1CO[C@H]2OCC[C@H]21)C(C)(C)C | 0.208 nM | 11 nM | 0.018 nM | 0.273 nM
2 | COC(=O)N[C@H](C(=O)N[C@@H](Cc1ccccc1)[C@@H](O)C[C@H](Cc1ccccc1)NC(=O)O[C@H]1CO[C@H]2OCC[C@H]21)C(C)C | 0.302 nM | 55 nM | 0.074 nM | 0.295 nM
3 | COC(=O)N[C@H](C(=O)N[C@@H](Cc1ccccc1)C[C@H](O)[C@H](Cc1ccccc1)NC(=O)O[C@H]1CO[C@H]2OCC[C@H]21)C(C)(C)C | 0.372 nM | 39 nM | 0.013 nM | 0.072 nM
4 | CC[C@@H](C)[C@H](NC(=O)OC)C(=O)N[C@@H](Cc1ccccc1)[C@@H](O)C[C@H](Cc1ccccc1)NC(=O)O[C@H]1CO[C@H]2OCC[C@H]21 | 0.091 nM | 240 nM | 0.027 nM | 0.029 nM
5 | Cc1cccc(C)c1OCC(=O)N[C@@H](Cc1ccccc1)[C@@H](O)C[C@H](Cc1ccccc1)NC(=O)O[C@H]1CO[C@H]2OCC[C@H]21 | 0.069 nM | 38 nM | 0.017 nM | 0.072 nM
6 | COC(=O)N[C@H](C(=O)N[C@@H](Cc1ccccc1)C[C@H](O)[C@H](Cc1ccccc1)NC(=O)O[C@H]1CO[C@H]2OCC[C@H]21)C1CCCC1 | 1.18 nM | – | 0.161 nM | 1.39 nM
7 | COC(=O)N[C@@H](C)C(=O)N[C@@H](Cc1ccccc1)[C@@H](O)C[C@H](Cc1ccccc1)NC(=O)O[C@H]1CO[C@H]2OCC[C@H]21 | 0.069 nM | 66 nM | 0.019 nM | 0.073 nM
8 | COC(=O)NC1(C(=O)N[C@@H](Cc2ccccc2)[C@@H](O)C[C@H](Cc2ccccc2)NC(=O)O[C@H]2CO[C@H]3OCC[C@H]32)CCCC1 | 236 nM | – | 46 nM | 484 nM
9 | COC(=O)N[C@H](C(=O)N[C@@H](Cc1ccccc1)[C@@H](O)C[C@H](Cc1ccccc1)NC(=O)O[C@H]1CO[C@H]2OCC[C@H]21)C1CC1 | 1.82 nM | – | 0.571 nM | 1.66 nM
10 | Cc1cccc(C)c1OCC(=O)N[C@@H](Cc1ccccc1)C[C@H](O)[C@H](Cc1ccccc1)NC(=O)O[C@H]1CO[C@H]2OCC[C@H]21 | 0.259 nM | 16 nM | 0.037 nM | –
11 | COC(=O)NC1(C(=O)N[C@@H](Cc2ccccc2)C[C@H](O)[C@H](Cc2ccccc2)NC(=O)O[C@H]2CO[C@H]3OCC[C@H]32)CCCC1 | 191 nM | – | 7.3 nM | 40 nM
12 | CC[C@H](C)[C@H](NC(=O)OC)C(=O)N[C@@H](Cc1ccccc1)[C@@H](O)C[C@H](Cc1ccccc1)NC(=O)O[C@H]1CO[C@H]2OCC[C@H]21 | 0.198 nM | 70 nM | 0.055 nM | 0.56 nM
13 | COC(=O)N[C@H](C(=O)N[C@@H](Cc1ccccc1)[C@@H](O)C[C@H](Cc1ccccc1)NC(=O)O[C@H]1CO[C@H]2OCC[C@H]21)C1CCCC1 | 0.71 nM | – | 0.235 nM | 2.35 nM
14 | Cc1cccc(C)c1OCC(=O)N[C@@H](Cc1ccccc1)[C@@H](O)C[C@H](Cc1ccccc1)NC(=O)[C@H](C(C)C)N1CCCNC1=O [LOPINAVIR] | – | 12 nM | – | –

Source: ChEMBL document CHEMBL4627412
